From BigSolDB 2.1

O=c1[nH]c2ccccc2n1CCCN1CCC(n2c(=O)[nH]c3cc(Cl)ccc32)CC1
solubility (mole fraction)
Conditions	278.15 K	283.15 K	288.15 K	293.15 K	298.15 K	303.15 K	308.15 K	313.15 K	318.15 K
in DMAc	0.000805	0.000971	0.00116	0.00136	0.00158	0.00182	0.00208	0.00234	0.00262
in DMF	7.44e-05	9.91e-05	0.000131	0.00017	0.000223	0.000282	0.000369	0.000471	0.000575
in DMSO	0.000283	0.00034	0.000408	0.000489	0.000584	0.000698	0.000832	0.00099	0.00118
in acetonitrile	1.2e-07	1.85e-07	2.54e-07	3.43e-07	4.6e-07	6.68e-07	8.73e-07	1.07e-06	1.46e-06
in ethanol	8.55e-06	1.09e-05	1.47e-05	1.86e-05	2.28e-05	2.93e-05	3.6e-05	4.53e-05	5.35e-05
in ethylene glycol	1.11e-05	1.43e-05	1.84e-05	2.21e-05	2.93e-05	3.47e-05	4.43e-05	5.56e-05	6.6e-05
in isobutanol	1.05e-05	1.35e-05	1.8e-05	2.23e-05	2.83e-05	3.67e-05	4.58e-05	5.68e-05	7.17e-05
in isopropanol	7.95e-06	9.92e-06	1.45e-05	1.84e-05	2.27e-05	2.74e-05	3.45e-05	4.33e-05	5.42e-05
in methanol	8.19e-06	9.89e-06	1.21e-05	1.6e-05	2.07e-05	2.56e-05	3.17e-05	4.03e-05	4.9e-05
in n-butanol	1.23e-05	1.64e-05	2.19e-05	2.85e-05	3.66e-05	4.45e-05	5.47e-05	7.02e-05	8.57e-05
in n-propanol	1.18e-05	1.45e-05	1.9e-05	2.55e-05	3.25e-05	4.17e-05	5.05e-05	6.43e-05	7.85e-05
in water	8.77e-08	1.05e-07	1.38e-07	1.75e-07	2.22e-07	2.76e-07	3.35e-07	4.16e-07	5.11e-07
